Results taken from the NIST ThermoML archive (doi:10.1021/je020131a).

Experiments:
[1] = Liquid; for viscosity: 101.3 kPa, Falling or rolling sphere viscometry; for mass density: 101.33 kPa, Vibrating tube method
[2] = xn = mol fraction of the nth substance listed; conditions: 101.3 kPa, Liquid, Falling or rolling sphere viscometry

C1CCCCC1 [cyclohexane]
[1]
Conditions | mass density [kg/m3] | viscosity [mPa·s]
293.15 K | – | 0.976
298.15 K | 773.8 | 0.894
303.15 K | – | 0.813
313.15 K | – | 0.697

C1CCCCC1 [cyclohexane] + CCOC(=O)OCC
[2], x2 = 0
Conditions | viscosity [mPa·s]
293.15 K | 0.976
298.15 K | 0.894
303.15 K | 0.813
313.15 K | 0.697

C1CCCCC1 [cyclohexane] + COC(=O)OC
[2], x2 = 0
Conditions | viscosity [mPa·s]
293.15 K | 0.976
298.15 K | 0.894
303.15 K | 0.813
313.15 K | 0.697

CCOC(=O)OCC [diethyl carbonate]
[1]
Conditions | mass density [kg/m3] | viscosity [mPa·s]
293.15 K | – | 0.795
298.15 K | 969.1 | 0.749
303.15 K | – | 0.699
313.15 K | – | 0.623

CCOC(=O)OCC [diethyl carbonate] + C1CCCCC1
[2]
Conditions | viscosity [mPa·s]
293.15 K, x1 = 0.0501 | 0.906
293.15 K, x1 = 0.0992 | 0.85
293.15 K, x1 = 0.1969 | 0.78
293.15 K, x1 = 0.2923 | 0.741
293.15 K, x1 = 0.4023 | 0.72
293.15 K, x1 = 0.502 | 0.712
293.15 K, x1 = 0.5984 | 0.718
293.15 K, x1 = 0.6977 | 0.728
293.15 K, x1 = 0.808 | 0.742
293.15 K, x1 = 0.9037 | 0.761
293.15 K, x1 = 0.9511 | 0.776
293.15 K, x1 = 1 | 0.795
298.15 K, x1 = 0.0531 | 0.832
298.15 K, x1 = 0.094 | 0.792
298.15 K, x1 = 0.1931 | 0.725
298.15 K, x1 = 0.2865 | 0.691
298.15 K, x1 = 0.3821 | 0.676
298.15 K, x1 = 0.4802 | 0.674
298.15 K, x1 = 0.6454 | 0.685
298.15 K, x1 = 0.6801 | 0.689
298.15 K, x1 = 0.7828 | 0.701
298.15 K, x1 = 0.8852 | 0.719
298.15 K, x1 = 0.9177 | 0.726
298.15 K, x1 = 1 | 0.749
303.15 K, x1 = 0.0497 | 0.76
303.15 K, x1 = 0.1018 | 0.717
303.15 K, x1 = 0.1958 | 0.665
303.15 K, x1 = 0.293 | 0.637
303.15 K, x1 = 0.3922 | 0.628
303.15 K, x1 = 0.4767 | 0.626
303.15 K, x1 = 0.5943 | 0.635
303.15 K, x1 = 0.6778 | 0.643
303.15 K, x1 = 0.7897 | 0.657
303.15 K, x1 = 0.8649 | 0.671
303.15 K, x1 = 0.94 | 0.684
303.15 K, x1 = 1 | 0.699
313.15 K, x1 = 0.0511 | 0.659
313.15 K, x1 = 0.0983 | 0.632
313.15 K, x1 = 0.2003 | 0.594
313.15 K, x1 = 0.3002 | 0.572
313.15 K, x1 = 0.3963 | 0.56
313.15 K, x1 = 0.4953 | 0.563
313.15 K, x1 = 0.5914 | 0.568
313.15 K, x1 = 0.7001 | 0.576
313.15 K, x1 = 0.8098 | 0.589
313.15 K, x1 = 0.9014 | 0.603
313.15 K, x1 = 0.9494 | 0.613
313.15 K, x1 = 1 | 0.623

CCOC(=O)OCC [diethyl carbonate] + CCCCCC
[2]
Conditions | viscosity [mPa·s]
293.15 K, x1 = 0.0576 | 0.318
293.15 K, x1 = 0.1106 | 0.326
293.15 K, x1 = 0.2219 | 0.353
293.15 K, x1 = 0.3358 | 0.388
293.15 K, x1 = 0.4303 | 0.422
293.15 K, x1 = 0.5384 | 0.471
293.15 K, x1 = 0.6357 | 0.524
293.15 K, x1 = 0.7334 | 0.588
293.15 K, x1 = 0.8246 | 0.652
293.15 K, x1 = 0.9171 | 0.721
293.15 K, x1 = 0.9589 | 0.757
293.15 K, x1 = 1 | 0.795
298.15 K, x1 = 0.0586 | 0.318
298.15 K, x1 = 0.1024 | 0.323
298.15 K, x1 = 0.2106 | 0.347
298.15 K, x1 = 0.305 | 0.37
298.15 K, x1 = 0.3592 | 0.389
298.15 K, x1 = 0.4259 | 0.412
298.15 K, x1 = 0.5719 | 0.475
298.15 K, x1 = 0.7051 | 0.546
298.15 K, x1 = 0.7965 | 0.605
298.15 K, x1 = 0.8894 | 0.67
298.15 K, x1 = 0.9095 | 0.688
298.15 K, x1 = 0.9794 | 0.737
298.15 K, x1 = 1 | 0.749
303.15 K, x1 = 0.0583 | 0.292
303.15 K, x1 = 0.0941 | 0.299
303.15 K, x1 = 0.1925 | 0.324
303.15 K, x1 = 0.2897 | 0.347
303.15 K, x1 = 0.3927 | 0.378
303.15 K, x1 = 0.5087 | 0.42
303.15 K, x1 = 0.6072 | 0.463
303.15 K, x1 = 0.7059 | 0.512
303.15 K, x1 = 0.8002 | 0.568
303.15 K, x1 = 0.8947 | 0.628
303.15 K, x1 = 0.9532 | 0.672
303.15 K, x1 = 1 | 0.699
313.15 K, x1 = 0.0502 | 0.264
313.15 K, x1 = 0.1001 | 0.278
313.15 K, x1 = 0.2001 | 0.295
313.15 K, x1 = 0.3008 | 0.318
313.15 K, x1 = 0.4021 | 0.344
313.15 K, x1 = 0.4972 | 0.371
313.15 K, x1 = 0.5992 | 0.41
313.15 K, x1 = 0.7005 | 0.454
313.15 K, x1 = 0.8096 | 0.509
313.15 K, x1 = 0.898 | 0.558
313.15 K, x1 = 0.9671 | 0.599
313.15 K, x1 = 1 | 0.623
